Experiments:
Assay type in all cases: in vivo
[1] = system: Straub Tail induced by oxymorphone; assay: Antagonism of oxymorphone-induced Straub Tail; conditions: mice, subcutaneous, oxymorphone 2 mg./kg. sc., as free base; for ED50: Mus musculus, read-out: ED50 Antagonist Activity, Oxymorphone Straub Tail
Procedure: (§1) In vivo testing was conducted on various compounds of the instant invention in the form of their respective soluble salts to determine their agonist and/or antagonist properties. The figures reported are the number of milligrams/kilogram of body weight of compound that produced an agonist or antagonist effect in 50% of the mice and rats so tested (ED50). All data is obtained by subcutaneous administration.
^2 Antagonism of Straub Tail induced by oxymorphone (2 mg./kg. sc.) i

[2] = system: phenylquinone induced writhing; assay: Phenylquinone writhing, agonist activity, mouse; conditions: subcutaneous, 50 percent reduction in number of writhing, as free base; for ED50: sc
Procedure: as §1
(§2) ^1 A 50 percent reduction in number of phenylquinone induced writhing
(§3) (Siegmund, E. A. et al., Proc. Soc. Biol. & Med. 95, 729; 1957).

[3] = system: analgesic effect induced by morphine; assay: animal or person; conditions: subcutaneous, morphine 15 mg./kg. sc., 50 percent reduction of analgesic effect, as free base; for ED50: rat, read-out: ED50 Antagonist Activity, Morphine Antagonism Rat Tail Flick
Procedure: as §1
(15 mg./kg. sc.) as measured by the rat tail flick procedure (Harris, L.
S. and Pierson, A. K., J. Pharmacol. & Expt. Therap., 143, 141; 1964).

[4] = system: phenylquinone induced writhing; assay: Phenylquinone writhing, agonist activity, rat; conditions: subcutaneous, 50 percent reduction in number of writhing, as free base
Procedure: as §1, §2, §3

[5] = system: righting reflex loss induced by oxymorphone; assay: animal or person; conditions: rats, subcutaneous, oxymorphone 1.5 mg./kg. sc., as free base; for ED50: Rattus norvegicus, read-out: ED50 Antagonist Activity, Oxymorphone Narcosis
Procedure: as §1
^3 Antagonism of righting reflex loss induced by oxymorphone (1.5
mg./kg. sc.) in 50 percent of rats.

| Structure (SMILES) | ED50 [1] [mg/kg] | ED50 [2] [mg/kg] | ED50 [3] [mg/kg] | also measured |
| --- | --- | --- | --- | --- |
| CCO[C@H]1[C@H]2Cc3ccc(O)cc3[C@]1(C)CCN2CC1CC1 (relative stereo) [dl-XIId, 2-Cyclopropylmethyl-9α-ethoxy-2'-hydroxy-5-methyl-6,7-benzomorphan] | 0.32 | 0.33 | 0.029 | – |
| COC1(C)C2Cc3ccc(O)cc3C1(C)CCN2CC1CCC1 (racemic) [dl-XIIv, 2-Cyclobutylmethyl-5,9β-dimethyl-2'-hydroxy-9β-methoxy-6,7-benzomorphan] | – | – | – | ED50 Antagonist Activity, Oxymorphone Straub Tail [1]: 7.5 mg/kg; ED50 Agonist Activity, Phenylquinone Writhing, Mouse [2]: 0.19 mg/kg |
| CO[C@@H]1[C@H]2Cc3ccc(O)cc3[C@]1(C)CCN2CC1CC1 (relative stereo) [dl-XIIt, 2-Cyclopropylmethyl-2'-hydroxy-9β-methoxy-5-methyl-6,7-benzomorphan] | ~7 | ~20 | 0.18 | – |
| CCCC12CCN(CC3CC3)C(Cc3ccc(O)cc31)C2OC (racemic) [dl-XIIn, 2-cyclopropylmethyl-2'-hydroxy-9α-methoxy-5-propyl-6,7-benzomorphan] | – | 0.2 | 0.033 | – |
| CO[C@@]1(C)[C@H]2Cc3ccc(O)cc3[C@]1(C)CCN2CC1CCC1 (relative stereo) [dl-XIIc, 2-Cyclobutylmethyl-5,9β-dimethyl-2'-hydroxy-9α-methoxy-6,7-benzomorphan] | 1.25 | 2.18 | – | – |
| C=CCO[C@H]1[C@H]2Cc3ccc(O)cc3[C@]1(C)CCN2CC1CC1 (relative stereo) [dl-XIIe, 9α-Allyloxy-2-cyclopropylmethyl-2'-hydroxy-5-methyl-6,7-benzomorphan] | ~0.63 | 5.3 | – | – |
| C=CC[C@]12CCN(CC3CC3)[C@H](Cc3ccc(O)cc31)[C@@H]2OC (relative stereo) [dl-XIIm, 5-Allyl-2-cyclopropylmethyl-2'-hydroxy-9α-methoxy-6,7-benzomorphan] | – | 0.026 | 0.046 | – |
| CO[C@H]1[C@H]2Cc3ccc(O)cc3[C@]1(C)CCN2CC1CC1 (relative stereo) [dl-XIIa, 2-Cyclopropylmethyl-2'-hydroxy-9α-methoxy-5-methyl-6,7-benzomorphan] | 0.24 | 0.087 | 0.06 | ED50 ([4]; sc): 0.034 mg/kg; ED50 [5]: 0.04 mg/kg |
| COC1C2Cc3ccc(O)cc3C1(C)CCN2CC1CC1 (single isomer, unassigned; (-)) [l-XIIa, (-)-2-Cyclopropylmethyl-2'-hydroxy-9α-methoxy-5-methyl-6,7-benzomorphan] | – | – | – | ED50 Antagonist Activity, Oxymorphone Straub Tail [1]: 0.10 mg/kg; ED50 Agonist Activity, Phenylquinone Writhing, Mouse [2]: 0.053 mg/kg; ED50 Agonist Activity, Phenylquinone Writhing, Rat [4]: 0.021 mg/kg; ED50 Antagonist Activity, Morphine Antagonism Rat Tail Flick [3]: 0.019 mg/kg; ED50 Antagonist Activity, Oxymorphone Narcosis [5]: 0.017 mg/kg |
| CO[C@@]1(C)[C@H]2Cc3ccc(O)cc3[C@]1(C)CCN2CC1CC1 (relative stereo) [dl-XIIb, 2-Cyclopropylmethyl-5,9β-dimethyl-2'-hydroxy-9α-methoxy-6,7-benzomorphan] | 0.16 | 1.25 | 0.011 | ED50 [5]: ~0.017 mg/kg |
| CC(C)=CCN1CCC2(C)c3cc(O)ccc3CC1C2C (stereo not drawn) [Pentazocine, reference compound] | – | – | – | ED50 [5]: 10.1 mg/kg |
| CO[C@]1(C)[C@H]2Cc3ccc(O)cc3[C@]1(C)CCN2CC1CC1 (relative stereo) [dl-XIIr, 2-Cyclopropylmethyl-5,9α-dimethyl-2'-hydroxy-9β-methoxy-6,7-benzomorphan] | 3.5 | 1.8 | – | – |

From patent US3956336A, “9-Alkoxy-5-methyl-6,7-benzomorphans” (Bristol-Myers Company, priority 1975, dated 1976)
